Literature values, collected in patent US20210198372A1, “METHODS FOR DOSING AND FOR MODULATION OF GENETICALLY ENGINEERED CELLS” (Juno Therapeutics, Inc., priority 2017, published 2021).

Details: equivalence in terms of potency for various glucocorticoids; route (IV or PO; IV; none)

C[C@]12C=CC(=O)C=C1CC[C@@H]1[C@@H]2[C@@H](O)C[C@@]2(C)[C@H]1CC[C@]2(O)C(=O)CO [Prednisolone]
Equivalency Potency: 5

C[C@]12CCC(=O)C=C1CC[C@@H]1[C@@H]2[C@@H](O)C[C@@]2(C)[C@H]1CC[C@]2(O)C(=O)CO [Hydrocortisone]
Equivalency Potency: 20

C[C@H]1C[C@@H]2[C@H]([C@@H](O)C[C@@]3(C)[C@H]2CC[C@]3(O)C(=O)COC(=O)CCC(=O)O)[C@@]2(C)C=CC(=O)C=C12 [Methylprednisolone sodium succinate]
Equivalency Potency: 4
